31 compounds from publication PMC7587356, “High-Throughput Screening for Inhibitors of the SARS-CoV-2 Protease Using a FRET-Biosensor” (Molecules, 2020) can be followed below.

For this experiment, the target named is SARS-CoV-2 3CLpro (Severe acute respiratory syndrome coronavirus 2, UniProt P0DTD1). Nature of the experiment: biochemical. Format: biochemical. On the set-up: Replicate_1 / Replicate_2 / mean / mean (LOPAC_screen_w_protease): unit not given here. Conditions: for inhibition at 5 µM: 4 h.
[1] abbreviates: sheet LOPAC_screen_w_protease, primary screen at 5 µM, mean of two replicates.
Where [2] appears, read: sheet LOPAC_screen_w_protease, primary screen at 5 µM, replicate 1.
Setting [3] is: sheet LOPAC_screen_w_protease, primary screen at 5 µM, replicate 2.
The mark [4] stands for this setting: LOPAC1280 primary screen with protease, 5 µM compound, mean of the two replicates.
Where [5] appears, read: LOPAC1280 primary screen with protease, 5 µM compound, replicate 1.
Setting [6] is: LOPAC1280 primary screen with protease, 5 µM compound, replicate 2.
The mark [7] stands for this setting: sheet LOPAC_screen_w_protease, LOPAC1280 at 5 µM, mean of two replicates.
[8] abbreviates: sheet LOPAC_screen_w_protease, LOPAC1280 at 5 µM, replicate 1.
[9] abbreviates: sheet LOPAC_screen_w_protease, LOPAC1280 at 5 µM, replicate 2.
Setting [10] is: sheet LOPAC_screen_w_protease, primary screen with protease, mean of two replicates.
[11] abbreviates: sheet LOPAC_screen_w_protease, primary screen with protease, replicate 1.
The mark [12] stands for this setting: sheet LOPAC_screen_w_protease, primary screen with protease, replicate 2.
Setting [13] is: sheet LOPAC_screen_w_protease, primary screen with protease, 5 µM, mean of two replicates.
Where [14] appears, read: sheet LOPAC_screen_w_protease, primary screen with protease, 5 µM, replicate 1.
Where [15] appears, read: sheet LOPAC_screen_w_protease, primary screen with protease, 5 µM, replicate 2.
Where [16] appears, read: sheet LOPAC_screen_w_protease, LOPAC1280 primary screen at 5 µM, with protease, mean of the two replicates.
Where [17] appears, read: sheet LOPAC_screen_w_protease, LOPAC1280 primary screen at 5 µM, with protease, replicate 1.
The mark [18] stands for this setting: sheet LOPAC_screen_w_protease, LOPAC1280 primary screen at 5 µM, with protease, replicate 2.
The mark [19] stands for this setting: read-out: Replicate_1 (LOPAC screen with protease).
[20] abbreviates: read-out: Replicate_2 (LOPAC screen with protease).
Where [21] appears, read: read-out: mean (LOPAC screen with protease).

Where a name gives a salt, the structure may show the parent alone. Read-outs that look alike come from different tables or passages of the source.

Turning to `C[Se]C[C@H](N)C(=O)O.Cl` [Se-(methyl)selenocysteine hydrochloride], under setting [1], the “mean (LOPAC screen with protease)” value is given as 12.3582. In addition, the “Replicate_1 (LOPAC screen with protease)” value under setting [2] is given as 13.6627. The “Replicate_2 (LOPAC screen with protease)” value under setting [3] was determined as 11.0537.

Consider `Clc1ccc2c(c1)C(N1CCNCC1)=Nc1ccccc1O2` [Amoxapine], for which the inhibition at 5 µM (sheet LOPAC_screen_w_protease, primary screen of LOPAC1280 at 5 µM with protease, mean of the two replicates, read-out: mean) turned out to be 3.27%; the inhibition at 5 µM (sheet LOPAC_screen_w_protease, primary screen of LOPAC1280 at 5 µM with protease, replicate 1, read-out: Replicate_1) came to 3.65%; the inhibition at 5 µM (sheet LOPAC_screen_w_protease, primary screen of LOPAC1280 at 5 µM with protease, replicate 2, read-out: Replicate_2) is 2.89%.

For the compound `CCn1c(=O)[nH]c2cc(Cl)c(Cl)cc21` [DCEBIO], the “mean (LOPAC_screen_w_protease)” value under setting [4] came out at 1.96. Besides, the “Replicate_1 (LOPAC_screen_w_protease)” value under setting [5] is recorded as 3.009. Moreover, the “Replicate_2 (LOPAC_screen_w_protease)” value under setting [6] worked out at 0.9113.

Under setting [7], `CC(N)(Cc1ccc(O)cc1)C(=O)O` (racemic) [DL-alpha-Methyl-p-tyrosine] yielded a mean of 1.1698. This compound also gave a Replicate_1 under setting [8] of 0.7226. In addition, under setting [9], the Replicate_2 is 1.617.

On to `CCN1CCC[C@H]1CNC(=O)c1c(OC)ccc(I)c1O` [S(-)-IBZM], for which, under setting [10], the mean is reported as 2.422. Further, the Replicate_1 under setting [11] worked out at 3.86. Under setting [12], this compound had a Replicate_2 of 0.9843.

Consider `O=C(O)/C(=C/c1c(C(=O)O)[nH]c2cc(Cl)cc(Cl)c12)c1ccccc1` [MDL 105,519], for which the Replicate_1 was 2.708, the Replicate_2 was found to be 5.657 and the mean is 4.183.

The compound `CCCCC#Cc1nc(N)c2ncn([C@@H]3O[C@H](C(=O)NCC)[C@@H](O)[C@H]3O)c2n1` [HE-NECA] returned a mean under setting [13] of 0.2072. Further, the Replicate_1 under setting [14] was determined as 3.132. This compound displayed a Replicate_2 under setting [15] of -2.7179.

Under setting [16], `COc1cc(C(O)CO)ccc1OS(=O)(=O)[O-].[K+]` (stereo not drawn) [MHPG sulfate potassium] showed a mean of 0.6725. Under setting [17], this compound showed a Replicate_1 of 2.348. The Replicate_2 under setting [18] is recorded as -1.003.

For the compound `Cl.NCCS` [Cysteamine hydrochloride], under setting [1], the “mean (LOPAC screen with protease)” value is on record as 8.502. For the same compound, the “Replicate_1 (LOPAC screen with protease)” value under setting [2] is 9.009. In addition, under setting [3], the “Replicate_2 (LOPAC screen with protease)” value is 7.996.

For the compound `Clc1cccc(Cl)c1N=C1NCCN1` [Clonidine hydrochloride], the “mean (LOPAC_screen_w_protease)” value is 1.822. In addition, the inhibition at 5 µM (read-out: Replicate_1 (LOPAC_screen_w_protease)) was found to be 1.42%. The inhibition at 5 µM (read-out: Replicate_2 (LOPAC_screen_w_protease)) amounted to 2.22%.

The compound `COC(=O)N1CCN(C(=O)Cc2ccc(Cl)c(Cl)c2)C(CN2CCCC2)C1.O=C(O)/C=C/C(=O)O` (stereo not drawn) [GR-89696 fumarate] showed a mean under setting [10] of 2.523. Under setting [11], the Replicate_1 is 2.9956. Besides, the Replicate_2 under setting [12] came to 2.05.

`O=c1c2ccccc2[se]n1-c1ccccc1` [Ebselen, reference compound]: the inhibition at 5 µM under setting [19] is 105%, the inhibition at 5 µM under setting [20] turned out to be 102% and the inhibition at 5 µM under setting [21] is 103%.

Regarding `CCOC(=O)Nc1ccc(NCc2ccc(F)cc2)nc1N` [Flupirtine maleate], the inhibition at 5 µM was 10.9% (sheet LOPAC_screen_w_protease, primary screen at 5 µM, mean of two replicates, read-out: mean (LOPAC screen with protease)); 11.1% (sheet LOPAC_screen_w_protease, primary screen at 5 µM, replicate 1, read-out: Replicate_1 (LOPAC screen with protease)); 10.6% (sheet LOPAC_screen_w_protease, primary screen at 5 µM, replicate 2, read-out: Replicate_2 (LOPAC screen with protease)).

As to `CC(Oc1ccc(Oc2cnc3ccc(Cl)cc3n2)cc1)C(=O)O` (stereo not drawn) [XK469], the mean under setting [7] is listed as 1.32. In addition, the Replicate_1 under setting [8] is recorded as 0.4248. For the same compound, under setting [9], the Replicate_2 amounted to 2.215.

`COc1cccc(NC(=O)/C=C/c2ccc(Cl)cc2)c1` [SB-366791]: the mean under setting [10] is recorded as 2.336. Under setting [11], this compound displayed a Replicate_1 of 3.003. Under setting [12], the Replicate_2 turned out to be 1.669.

`CCN(CC)C(=O)N[C@H]1C[C@@H]2c3cccc4[nH]cc(c34)C[C@H]2N(C)C1` [R(+)-Terguride] yielded a mean under setting [16] of 0.4418. Further, under setting [17], the Replicate_1 is on record as 0.9662. Moreover, under setting [18], the Replicate_2 is -0.08256.

For the compound `COC(=O)[C@@H]1[C@H]2C[C@H]3c4[nH]c5ccccc5c4CCN3C[C@@H]2CC[C@@H]1O` [Yohimbine hydrochloride], the inhibition at 5 µM was 0.269% (sheet LOPAC_screen_w_protease, primary screen with protease, 5 µM, mean of two replicates, read-out: mean); -0.997% (sheet LOPAC_screen_w_protease, primary screen with protease, 5 µM, replicate 1, read-out: Replicate_1); 1.53% (sheet LOPAC_screen_w_protease, primary screen with protease, 5 µM, replicate 2, read-out: Replicate_2).

`O=[N+]([O-])c1cc2nc(O)c(O)nc2cc1[N+](=O)[O-]` [DNQX]: the Replicate_1 was determined as 2.956, the Replicate_2 is given as 2.135 and the mean was 2.546.

The compound `Cl.OC1CCCCC1N1CCC(c2ccccc2)CC1` (racemic) [(±)-Vesamicol hydrochloride] returned a mean under setting [16] of 0.573. Under setting [17], this compound gave a Replicate_1 of 1.205. Under setting [18], this compound yielded a Replicate_2 of -0.05902.

For `CC(C)=CCC/C(C)=C/CC/C(C)=C/CSc1ccccc1C(=O)O` [Farnesylthiosalicylic acid], the mean under setting [13] worked out at 0.3894. The compound further displayed a Replicate_1 under setting [14] of 1.928. This compound also had a Replicate_2 under setting [15] of -1.149.

As for `C[N+](C)(C)CCC(=O)c1cccc2ccccc12.[I-]`, the “mean (LOPAC screen with protease)” value under setting [1] is given as 102.503. Further, the “Replicate_1 (LOPAC screen with protease)” value under setting [2] was 102.129. Moreover, the “Replicate_2 (LOPAC screen with protease)” value under setting [3] is listed as 102.878.

Consider `O=c1ccn([C@@H]2O[C@H](COP(=O)([O-])OP(=O)([O-])O)[C@@H](O)[C@H]2O)c(=O)[nH]1.[Na+].[Na+]` [Uridine 5'-diphosphate sodium], for which the mean under setting [13] is -0.3913. In addition, the Replicate_1 under setting [14] is -1.155. Under setting [15], the Replicate_2 came out at 0.3722.

In the case of `CC1(C)CCC=[N+]1[O-]` [5,5-Dimethyl-1-pyrroline-N-oxide], the mean under setting [7] came out at 1.097. The compound also had a Replicate_1 under setting [8] of 0.9422. This compound registered a Replicate_2 under setting [9] of 1.253.

For `C[N+](C)(C)CC(=O)O` [Betaine hydrochloride], the inhibition at 5 µM reads like this: (sheet LOPAC_screen_w_protease, LOPAC1280 at 5 µM, mean of two replicates, read-out: mean) 1.07%; (sheet LOPAC_screen_w_protease, LOPAC1280 at 5 µM, replicate 1, read-out: Replicate_1) 0.144%; (sheet LOPAC_screen_w_protease, LOPAC1280 at 5 µM, replicate 2, read-out: Replicate_2) 1.99%.

As to `Oc1ccc2c3c1O[C@H]1c4oc5ccccc5c4C[C@@]4(O)[C@@H](C2)N(CC2CC2)CC[C@]314` [Naltriben methanesulfonate], the inhibition at 5 µM reads like this: (read-out: Replicate_1) 4.4%; (read-out: Replicate_2) 3%; (read-out: mean) 3.7%.

With `Oc1ccc(C2CNCCc3c2cc(O)c(O)c3Cl)cc1` (stereo not drawn) [Fenoldopam bromide], the inhibition at 5 µM came out at 29.5% under setting [19], 23% under setting [20] and 26.2% under setting [21].

For `CN(C)CCC=C1c2ccccc2CCc2ccccc21` [Amitriptyline hydrochloride], the inhibition at 5 µM is, setting by setting: (sheet LOPAC_screen_w_protease, LOPAC1280 primary screen at 5 µM, with protease, mean of the two replicates, read-out: mean) 0.72%; (sheet LOPAC_screen_w_protease, LOPAC1280 primary screen at 5 µM, with protease, replicate 1, read-out: Replicate_1) 0.391%; (sheet LOPAC_screen_w_protease, LOPAC1280 primary screen at 5 µM, with protease, replicate 2, read-out: Replicate_2) 1.05%.

For `CCCN1CCOC2c3cc(O)ccc3OCC21.Cl` (racemic) [(±)-PD 128,907 hydrochloride], the mean (sheet LOPAC_screen_w_protease, primary screen of LOPAC1280 at 5 µM with protease, mean of the two replicates) turned out to be 3.436. For the setting “sheet LOPAC_screen_w_protease, primary screen of LOPAC1280 at 5 µM with protease, replicate 1”, the Replicate_1 is 4.647. For the same compound, the Replicate_2 (sheet LOPAC_screen_w_protease, primary screen of LOPAC1280 at 5 µM with protease, replicate 2) stood at 2.226.

As for `CC(=O)c1c(O)c(C)c(O)c(Cc2c(O)c3c(c(C(=O)/C=C/c4ccccc4)c2O)OC(C)(C)C=C3)c1O` [Rottlerin], the inhibition at 5 µM is, setting by setting: (read-out: Replicate_1) 4.21%; (read-out: Replicate_2) 5.11%; (read-out: mean) 4.66%.

In the case of `Br.Oc1cc2c(c(Cl)c1O)CCNCC2c1ccccc1` (racemic) [(±)-6-Chloro-PB hydrobromide], under setting [1], the “mean (LOPAC screen with protease)” value amounted to 66.2827. Also, the “Replicate_1 (LOPAC screen with protease)” value under setting [2] amounted to 64.3769. Under setting [3], the “Replicate_2 (LOPAC screen with protease)” value came out at 68.1884.

Regarding `Br.CCCN(CCC)C1CCc2cccc(O)c2C1` (racemic) [(±)-8-Hydroxy-DPAT hydrobromide], the “mean (LOPAC_screen_w_protease)” value under setting [4] was 1.82. For the same compound, the “Replicate_1 (LOPAC_screen_w_protease)” value under setting [5] turned out to be 3.36. For the same compound, the “Replicate_2 (LOPAC_screen_w_protease)” value under setting [6] was determined as 0.2793.
